{"source": "patent EP0378317A2", "about": "“Microbial transformation product of L-679,934” (Merck & Co., Inc., priority 1989, dated 1990)", "key": {"[1]": {"system": "mouse T lymphocytes", "experiment": "T-cell proliferation assay (ionomycin plus PMA induced T-cell stimulation, tritiated thymidine uptake)", "format": "cell-based", "conditions": "for IC50: read-out: IC₅₀", "experimental": "The principle of this assay is to measure the proliferation of mouse T lymphocytes stimulated with the combination of ionomycin plus PMA. A positive sample in this assay will inhibit T-cell proliferation, as indicated by reduced tritiated thymidine uptake. […] Cells were pelleted by centrifugation at 1500 rpm for 8 minutes. Contaminating red cells were removed by treating the pellet with ammonium chloride lysing buffer (GIBCO) for 2 minutes at 4°C. Cold medium was added and cells were again centrifuged at 1500 rpm for 8 minutes. T lymphocytes were then isolated by separation of the cell suspension on nylon wool columns as follows: Nylon wool columns were prepared by packing approximately 4 grams of washed and dried nylon wool into 20 ml plastic syringes. The columns were sterilized by autoclaving at 250°F for 30 minutes. Nylon wool columns were wetted with warm (37°C) culture medium and rinsed with the same medium. Washed spleen cells resuspended in warm medium were slowly applied to the nylon wool. The columns were then incubated in an upright position at 37°C for 1 hour. Non-adherent T lymphocytes were eluted from the columns with warm culture medium and the cell suspensions were spun as above. […] The cell suspension was immediately distributed into 96 well flat-bottom microculture plates (Costar) at 200 µl/well. […] The proliferation of T lymphocytes was assessed by measurement of tritiated thymidine incorporation. After 44 hours of culturing, the cells were pulse-labelled with 2 µCi/well of tritiated thymidine (NEN, Cambridge, MA). After another 4 hours of incubation, cultures were harvested on glass fiber filters using a multiple sample harvester. Radioactivity of filter discs corresponding to individual wells was measured by standard liquid scintillation counting methods (Betacounter). Mean counts per minute of replicate wells were calculated and the results expressed as percent inhibition of tritiated thymidine uptake (proliferation) as follows: [formula]"}, "[2]": {"experiment": "Physical characteristics of the fermentation product", "format": "physicochemical", "conditions": "methanol", "description": "White amorphous powder • 2. […] Molecular weight of 789, as determined by FAB mass spectroscopy and is consistent with the assigned molecular structure in Figure 1."}}, "note": "Entries after “also recorded” stand apart in the source; their conditions may differ. Read-outs that look alike come from different tables or passages of the source.", "data": [{"smiles": "C=CC[C@@H]1/C=C(\\C)C[C@H](C)C[C@H](OC)[C@H]2O[C@@](O)(C(=O)C(=O)N3CCCC[C@H]3C(=O)O[C@H](/C(C)=C/[C@@H]3CC[C@@H](O)[C@H](OC)C3)[C@H](C)[C@@H](O)CC1=O)[C@H](C)C[C@@H]2OC", "note": "[L-679,934]", "values": [{"measurement": "inhibition at 0.01 µg/mL", "setting": "[1]; Mus musculus, T-lymphocyte, 48 h", "value": 99, "unit": "%"}]}, {"smiles": "C=CCC1C=C(C)CC(C)CC(OC)C(O)C2CC(C)C(O)(O2)C(=O)C(=O)N2CCCCC2C(=O)OC(C(C)=CC2CCC(O)C(OC)C2)C(C)C(O)CC1=O", "note": "[L-683,519]", "values": [{"measurement": "Solubility", "setting": "[2]", "value": "Solubility in methanol"}, {"measurement": "IC50", "setting": "[1]; Mus musculus, T-lymphocyte, inhibition of T-cell proliferation, this experiment, same value in molar terms", "value": 2.2, "unit": "nM"}, {"measurement": "IC50", "setting": "[1]; Mus musculus, T-lymphocyte, inhibition of T-cell proliferation, this experiment", "value": 1.7, "unit": "ng/mL"}, {"measurement": "IC50", "setting": "[1]; Mus musculus, T-lymphocyte, range generally found", "value": "2 to 4", "unit": "nM"}, {"measurement": "inhibition at 0.00058 µg/mL", "setting": "[1]; Mus musculus, T-lymphocyte, L-683,519 0.58 ng/ml, harvest at 48 hours", "value": 0, "unit": "%"}, {"measurement": "inhibition at 0.00087 µg/mL", "setting": "[1]; Mus musculus, T-lymphocyte, L-683,519 0.87 ng/ml, harvest at 48 hours", "value": 0, "unit": "%"}, {"measurement": "inhibition at 0.0013 µg/mL", "setting": "[1]; Mus musculus, T-lymphocyte, L-683,519 1.3 ng/ml, harvest at 48 hours", "value": 30, "unit": "%"}, {"measurement": "inhibition at 0.0019 µg/mL", "setting": "[1]; Mus musculus, T-lymphocyte, L-683,519 1.9 ng/ml, harvest at 48 hours", "value": 57, "unit": "%"}, {"measurement": "inhibition at 0.0029 µg/mL", "setting": "[1]; Mus musculus, T-lymphocyte, L-683,519 2.9 ng/ml, harvest at 48 hours", "value": 81, "unit": "%"}, {"measurement": "inhibition at 0.0044 µg/mL", "setting": "[1]; Mus musculus, T-lymphocyte, L-683,519 4.4 ng/ml, harvest at 48 hours", "value": 93, "unit": "%"}, {"measurement": "inhibition at 0.0066 µg/mL", "setting": "[1]; Mus musculus, T-lymphocyte, L-683,519 6.6 ng/ml, harvest at 48 hours", "value": 97, "unit": "%"}, {"measurement": "inhibition at 0.0099 µg/mL", "setting": "[1]; Mus musculus, T-lymphocyte, L-683,519 9.9 ng/ml, harvest at 48 hours", "value": 99, "unit": "%"}, {"measurement": "inhibition at 0.015 µg/mL", "setting": "[1]; Mus musculus, T-lymphocyte, L-683,519 15.0 ng/ml, harvest at 48 hours", "value": 99, "unit": "%"}, {"measurement": "inhibition at 0.022 µg/mL", "setting": "[1]; Mus musculus, T-lymphocyte, L-683,519 22.0 ng/ml, harvest at 48 hours", "value": 99, "unit": "%"}, {"measurement": "inhibition at 0.033 µg/mL", "setting": "[1]; Mus musculus, T-lymphocyte, L-683,519 33.0 ng/ml, harvest at 48 hours", "value": 99, "unit": "%"}, {"measurement": "inhibition at 0.05 µg/mL", "setting": "[1]; Mus musculus, T-lymphocyte, L-683,519 50.0 ng/ml, ionomycin 250 ng/ml + PMA 10 ng/ml, ³H-thymidine pulse 4 hours, harvest at 48 hours", "value": 99, "unit": "%"}, {"measurement": "Inhibition of proliferation after addition of IL-2", "setting": "[1]; addition of 50 units/ml. of recombinant human IL-2", "value": "4. Inhibition of proliferation was reversed by the addition of 50 units/ml. of recombinant human IL-2."}, {"measurement": "inhibition of T-cell activation (immunosuppressive activity)", "setting": "[1]; result in words", "value": "positive inhibition of T-cell activation; also recorded: positive immunosuppressive activity"}]}]}
